We go through 92 compounds from ChEMBL document CHEMBL5604062, “ASAP - ZIKV NS2B-NS3 protease fluorescence dose response” (2024).

Molecules are shown by their SMILES. “And” between values parts separate entries of the source, which are not always exact repeats. Equal values may be shown once.

The target in this experiment is Nonstructural protein 3 (Zika virus, UniProt A0A024AXB9). Briefly: Functional biochemical assay to identify treatments for viral infectious disease that targets Zika NS2B-NS3 protease. Utilizing a direct enzyme activity measurement method, reading the fluorescence intensity is used to characterize the relative potency of inhibitors as IC50. The arrangement: species or system PRVABC59.
Chain of Nonstructural protein 3 (A0A024AXB9 whole entry): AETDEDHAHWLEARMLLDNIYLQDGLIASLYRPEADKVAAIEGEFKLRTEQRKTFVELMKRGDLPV
Compound `OC1(c2ccccc2)CCN(Cc2c[nH]c3ccccc23)CC1` yielded an IC50 above 99.5 µM.

Turning to `CCCC[C@H](NC(C)=O)C(=O)N[C@H](C(=O)NCc1ccc(C(N)=O)cc1)c1ccc(OCc2ccccc2)cc1`, the IC50 is above 99.5 µM.

Regarding `CNC(=O)c1cc(Cl)ccc1NS(=O)(=O)c1cccc(Oc2ccccc2)c1`, the half-maximal inhibitory concentration (IC50) was above 99.5 µM.

`CCOc1cc(COc2cccnc2F)nc(N2CCNCC2)n1` displayed an IC50 above 99.5 µM.

The compound `C[C@@H](NC(=O)c1cc(Cl)ccc1NS(=O)(=O)c1ccc(Oc2ccccc2Cl)cc1)[C@H]1CCCO1` registered a half-inhibitory concentration (IC50) above 99.5 µM.

In turn, `CCc1cc(C)nc(C2CCN(Cc3c[nH]c4ccccc34)CC2)n1` came in with an IC50 of 59.4 µM.

Turning to `O=C(c1cc(Cl)ccc1NS(=O)(=O)c1ccc(Oc2ccccc2Cl)cc1)N1CC[C@H](CO)C1`, the IC50 is above 99.5 µM.

In the case of `Cn1nccc1C1CCN(Cc2c[nH]c3ccccc23)CC1`, the IC50 is above 99.5 µM.

Take `O=S(=O)(Nc1ccc(Oc2ccccc2Cl)cc1)c1c[nH]c2ccc(Cl)cc12`: the IC50 was above 99.5 µM.

The compound `Cc1ccc(CNC(=O)c2cc(Cl)ccc2NS(=O)(=O)c2ccc(Oc3ccccc3Cl)cc2)s1` came in with an IC50 above 99.5 µM.

`CC[C@H]1CCN(C(=O)c2cc(Cl)ccc2NS(=O)(=O)c2ccc(Oc3ccccc3Cl)cc2)C1` came in with an IC50 above 99.5 µM.

The compound `CCCC[C@@H](NC(=O)OC(C)(C)C)C(=O)N[C@@H](C(=O)NCc1ccc(CN)cc1)c1ccc(OCc2ccccc2)cc1` displayed an IC50 of 25.6 µM.

The compound `CNc1cc(COc2cccnc2F)nc(N2CCNCC2)n1` showed an IC50 above 99.5 µM.

`CCCC[C@H](N)C(=O)N[C@H](C(=O)NCc1ccc(C(N)=O)cc1)c1ccc(OCc2ccccc2)cc1`: the IC50 was 81 µM.

On to `CCC1CCN(Cc2c[nH]c3ccccc23)CC1`, for which the IC50 was above 99.5 µM.

Compound `c1ccc(COC2CCN(Cc3c[nH]c4ccccc34)CC2)cc1` came in with an IC50 above 99.5 µM.

In turn, `CCc1ccc(NS(=O)(=O)c2ccc(Oc3ccccc3Cl)cc2)c(C(=O)NC)c1` came in with an IC50 above 99.5 µM.

`CC(C)(C)OC(=O)Cn1ccnc(N2CC[C@@H](CO)C2)c1=O`: the IC50 is above 99.5 µM.

As to `C[C@H]1COCCN1C(=O)c1cc(Cl)ccc1NS(=O)(=O)c1ccc(Oc2ccccc2Cl)cc1`, the IC50 was above 99.5 µM.

For `CNC(=O)c1cc(Cl)c(OC)cc1NS(=O)(=O)c1ccc(Oc2ccccc2Cl)cc1`, the midpoint of inhibition, the IC50, lay at 53.4 µM.

`CCCC[C@H](N)C(=O)N[C@@H](C(=O)NCc1ccc(C(N)=O)cc1)c1ccc(OCc2ccccc2)cc1` had an IC50 above 99.5 µM.

Take `COC[C@@H](C)CNC(=O)c1cc(Cl)ccc1NS(=O)(=O)c1ccc(Oc2ccccc2Cl)cc1`: the IC50 was above 99.5 µM.

As to `NC[C@H]1C[C@@H](NC(=O)[C@@H](NC(=O)OCc2ccccc2)c2ccc(OCc3ccccc3)cc2)C1`, the half-maximal inhibitory concentration (IC50) came out at 85.2 µM.

Regarding `O=C(NC[C@H]1CCCO1)c1cc(Cl)ccc1NS(=O)(=O)c1ccc(Oc2ccccc2Cl)cc1`, the IC50 was above 99.5 µM.

Compound `O[C@H]1CCCN(Cc2c[nH]c3ccccc23)C1` registered an IC50 above 99.5 µM.

In turn, `CC(C)Oc1cc(COc2cccnc2F)nc(N2CCNCC2)n1` gave an IC50 above 99.5 µM.

In the case of `CCCCCC(=O)N[C@H](C(=O)NCc1cccc(CN)c1)C1CCCCC1`, the half-inhibitory concentration (IC50) was above 99.5 µM.

In the case of `NC(=O)c1ccccc1NS(=O)(=O)c1ccc(Oc2ccccc2Cl)cc1`, the IC50 was above 99.5 µM.

Turning to `NCc1cccc(NC(=O)c2cccc(NC(=O)OCc3ccccc3)n2)c1`, the IC50 is above 99.5 µM.

The compound `c1ccc2c(CN3CCC(c4ccn[nH]4)CC3)c[nH]c2c1` yielded an IC50 of 66.2 µM.

With `CCCN(C)C(=O)c1cc(Cl)ccc1NS(=O)(=O)c1ccc(Oc2ccccc2Cl)cc1`, the IC50 is above 99.5 µM.

The compound `CCCCCNC(=O)c1cc(Cl)ccc1NS(=O)(=O)c1ccc(Oc2ccccc2Cl)cc1` had an IC50 above 99.5 µM.

The compound `CCn1ccnc(N2C[C@@H](O)[C@H](c3c[nH]c4ccccc34)C2)c1=O` came in with an IC50 above 99.5 µM.

On to `O=C(N[C@@H](C(=O)NC1CNC1)c1ccc(OCc2ccccc2)cc1)OCc1ccccc1`, for which the IC50 is above 99.5 µM.

The compound `NC[C@H]1CCN1C(=O)[C@@H](NC(=O)OCc1ccccc1)c1ccc(OCc2ccccc2)cc1` came in with an IC50 above 99.5 µM.

On to `CC(C)Oc1ccc(S(=O)(=O)Nc2ccc(Cl)cc2C(=O)O)cc1`, for which the IC50 was above 99.5 µM.

As for `NCc1cccc(NC(=O)[C@@H](NC(=O)OCc2ccccc2)C2CCCCC2)c1`, the IC50 was above 99.5 µM.

As for `COc1cc(C(=O)Nc2cnc3ccccc3c2)nc(N2CCNCC2)n1`, the IC50 was above 99.5 µM.

Consider `OCCOc1cc(COc2cccnc2F)nc(N2CCNCC2)n1`, for which the IC50 is above 99.5 µM.

Turning to `CC(C)(CO)CN1CC[C@H](c2c[nH]c3ccccc23)C1`, the IC50 was above 99.5 µM.

As to `NCc1cccc(NC(=O)[C@@H](NC(=O)OCc2ccccc2)c2ccc(F)cc2F)c1`, the IC50 was above 99.5 µM.

On to `CCn1c(=O)c(N2CC[C@@H](CO)C2)nc2ccccc21`, for which the IC50 is above 99.5 µM.

As to `CC(C)c1ccc([C@@H](NC(=O)OCc2ccccc2)C(=O)Nc2cccc(CN)c2)cc1`, the IC50 is 87.7 µM.

The compound `O=C(N[C@@H](C(=O)NC1CCNCC1)c1ccc(OCc2ccccc2)cc1)OCc1ccccc1` displayed an IC50 above 99.5 µM.

The compound `C[C@@H](N)c1cccc(NC(=O)[C@@H](NC(=O)OCc2ccccc2)c2ccc(OCc3ccccc3)cc2)c1` showed an IC50 of 33.6 µM.

With `c1cnc(C2CCN(Cc3c[nH]c4ccccc34)CC2)nc1`, the IC50 is 50.6 µM.

`COc1cccc(C2CCN(Cc3c[nH]c4ccccc34)CC2)c1` returned an IC50 of 64.3 µM.

Compound `c1ccc2c(CN3CCC(c4cscn4)CC3)c[nH]c2c1` came in with an IC50 of 22.1 µM.

As for `NCc1cccc(NC(=O)[C@H]2c3ccccc3CCN2C(=O)OCc2ccccc2)c1`, the IC50 was above 99.5 µM.

For `NC(=O)[C@H]1CCCN(Cc2c[nH]c3ccccc23)C1`, the IC50 is above 99.5 µM.

`NCc1cccc(NC(=O)[C@@H](NC(=O)OCc2ccccc2)C(C2CCC2)C2CCC2)c1`: the IC50 was 66.3 µM and 82.1 µM.

As to `c1cc(CN2CCC(c3c[nH]c4cccnc34)CC2)c2[nH]ncc2c1`, the IC50 is above 99.5 µM.

The compound `O=S(=O)(Nc1ccc(Cl)cc1)c1ccc(Oc2ccccc2Cl)cc1` gave an IC50 above 99.5 µM.

Consider `NCc1cccc(NC(=O)[C@H]2CCCN(C(=O)OCc3ccccc3)C2)c1`, for which the IC50 was above 99.5 µM.

Compound `OC1CCN(Cc2c[nH]c3ccccc23)CC1` displayed an IC50 above 99.5 µM.

In the case of `O=C(Nc1ccc(Cl)cc1C(=O)O)c1ccc(Oc2ccccc2Cl)cc1`, the IC50 was above 99.5 µM.

`c1ccc2c(CN3CCC(c4cnco4)CC3)c[nH]c2c1` displayed an IC50 of 56.1 µM.

Compound `CCn1ccnc(N2CC[C@H](c3ccc(F)cc3)C2)c1=O` yielded an IC50 above 99.5 µM.

As for `c1ccc2sc(C3CCN(Cc4c[nH]c5ccccc45)CC3)nc2c1`, the IC50 was 9.89 µM.

Regarding `Fc1ncccc1OCc1cc(Cl)nc(N2CCNCC2)n1`, the half-inhibitory concentration (IC50) was above 99.5 µM.

For `NCc1cccc(NC(=O)[C@@H](NC(=O)OCc2ccccc2)c2cc(F)cc(F)c2)c1`, the IC50 was above 99.5 µM.

For the compound `CC(C)CNC(=O)c1cc(Cl)ccc1NS(=O)(=O)c1ccc(Oc2ccccc2Cl)cc1`, the IC50 is 34.3 µM.

In the case of `CC(=O)N[C@@H](C(=O)Nc1cccc(CN)c1)c1ccc(OCc2ccccc2)cc1`, the 50% inhibitory concentration (IC50) was above 99.5 µM.

On to `O[C@@H]1CNC[C@H]1c1c[nH]c2ccccc12`, for which the IC50 was above 99.5 µM.

`NCc1cccc(NC(=O)[C@H]2c3ccc(OCc4ccccc4)cc3CCN2C(=O)OCc2ccccc2)c1` came in with an IC50 of 17.3 µM.

The compound `CC(C)(C)Oc1ccc(S(=O)(=O)Nc2ccc(Cl)cc2C(=O)O)cc1` yielded an IC50 above 99.5 µM.

With `CCOc1ccc([C@@H](NC(=O)OCc2ccccc2)C(=O)Nc2cccc(CN)c2)cc1`, the IC50 was above 99.5 µM.

Turning to `O=C(c1cc(Cl)ccc1NS(=O)(=O)c1ccc(Oc2ccccc2Cl)cc1)N1CCC[C@@H]1CO`, the IC50 was above 99.5 µM.

In turn, `NCc1cccc(NC(=O)[C@@H](NC(=O)OCc2ccccc2)c2cccc(F)c2F)c1` showed an IC50 above 99.5 µM.

As to `O=c1c(N2CC[C@H](CO)C2)nccn1C1CC1`, the IC50 is above 99.5 µM.

With `c1cc(C2CCN(Cc3c[nH]c4ccccc34)CC2)c2ccncc2c1`, inhibition was half-maximal at 24.6 µM (IC50).

In turn, `O=C(O)c1cc(Cl)ccc1NCc1ccc(Oc2ccccc2Cl)cc1` yielded an IC50 above 99.5 µM.

For `CN(CCS(N)(=O)=O)C(=O)c1cc(Cl)ccc1NS(=O)(=O)c1ccc(Oc2ccccc2Cl)cc1`, the IC50 is above 99.5 µM.

Compound `COc1ccc(S(=O)(=O)Nc2ccc(Cl)cc2C(=O)O)cc1` returned an IC50 above 99.5 µM.

`O=C(c1cc(Cl)ccc1NS(=O)(=O)c1ccc(Oc2ccccc2Cl)cc1)N1CCC[C@H](O)C1`: the IC50 was above 99.5 µM.

Compound `CCn1ccnc(N[C@@H](Cc2c[nH]c3ccccc23)C(N)=O)c1=O` returned an IC50 above 99.5 µM.

Turning to `NCc1cccc(NC(=O)[C@H]2COC3(CCOCC3)N2C(=O)OCc2ccccc2)c1`, the IC50 is above 99.5 µM.

Compound `CNC(=O)c1cc(Cl)c(F)cc1NS(=O)(=O)c1ccc(Oc2ccccc2Cl)cc1` registered an IC50 of 37.9 µM.

Compound `NCc1cccc(NC(=O)[C@@H](NC(=O)OCc2ccccc2)c2ccc(Cl)cc2)c1` gave an IC50 above 99.5 µM.

`FC(F)(F)c1ccccc1C1CCN(Cc2c[nH]c3ccccc23)CC1` had an IC50 above 99.5 µM.

`c1ccc2oc(C3CCN(Cc4c[nH]c5ccccc45)CC3)nc2c1` yielded an IC50 of 60.6 µM.

`NCc1cccc(NC(=O)Cc2ccc(OCc3ccccc3)cc2)c1` yielded a half-inhibitory concentration (IC50) above 99.5 µM.

Turning to `NCc1cccc(NC(=O)[C@@H](Cc2c[nH]c3ccccc23)NC(=O)OCc2ccccc2)c1`, the IC50 was above 99.5 µM.

The compound `c1ccc2c(CN3CCC(n4cccn4)CC3)c[nH]c2c1` came in with a half-maximal inhibitory concentration (IC50) above 99.5 µM.

`NS(=O)(=O)c1ccc(C2CCN(Cc3c[nH]c4ccccc34)CC2)cc1` had an IC50 of 26.4 µM.

`O=C(N[C@@H](C(=O)N[C@H]1CCCNC1)c1ccc(OCc2ccccc2)cc1)OCc1ccccc1` displayed an IC50 above 99.5 µM.

In turn, `CC[C@H]1CCN(c2nccn(CC)c2=O)C1` returned an IC50 above 99.5 µM.

`O=C(O)c1cc(Cl)ccc1NS(=O)(=O)c1ccc(Oc2ccccc2Cl)cc1` gave an IC50 of 35.1 µM.

In the case of `CCn1ccnc(N(C)[C@@H](CO)Cc2c[nH]c3ccccc23)c1=O`, the IC50 was above 99.5 µM.

`O=C1NCc2ccccc2C12CCN(Cc1cc3ccc(F)cc3[nH]1)CC2`: the IC50 is above 99.5 µM.

On to `NCc1ccc2c(c1)N(C(=O)[C@@H](NC(=O)OCc1ccccc1)c1ccc(OCc3ccccc3)cc1)CC2`, for which the IC50 was 12.3 µM.

Consider `c1ccc2c(CN3CCCCC3)c[nH]c2c1`, for which the IC50 was above 99.5 µM.
